The values that follow come from US20110190265A1, “METHODS AND COMPOSITIONS FOR TREATING BACTERIAL INFECTIONS BY INHIBITING QUORUM SENSING” (priority 2008, published 2011).

The test system of test [1] is autoinducer production by V. cholerae N16961. The test is described as follows: microbe, parasite or virus in culture. The conditions noted are these: Vibrio cholerae, read-out: AI Inhibition IC50, BB170 (ai1−ai2+).
Test [2] concerns the target MTAN activity in V. cholerae N16961 cells (Vibrio cholerae serotype O1, UniProt Q9KPI8).
In test [3] the target is human MTAP (Homo sapiens, UniProt Q13126). The conditions noted are these: read-out: affinity for purified human MTAP; cited from earlier work.
In test [4] the target is T1, VcMTAN (Vibrio cholerae serotype O1, UniProt Q9KPI8).
T1 construct: residues 1-230 for each monomer of VcMTAN in the asymmetric unit; The largest part of the N-terminal 6-His tag and the last C-terminal residue, 231; made in house; host or cells: E. coli BL21 Star (pBAD-DEST49)
T1 sequence (Q9KPI8 1-231): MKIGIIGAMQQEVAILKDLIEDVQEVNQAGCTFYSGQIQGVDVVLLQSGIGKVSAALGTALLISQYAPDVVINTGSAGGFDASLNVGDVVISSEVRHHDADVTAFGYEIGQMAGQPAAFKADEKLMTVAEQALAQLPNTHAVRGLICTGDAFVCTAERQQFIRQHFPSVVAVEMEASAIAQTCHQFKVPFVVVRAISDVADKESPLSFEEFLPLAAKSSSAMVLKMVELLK
The test is described as follows: Inhibition of purified MTAN activity (xanthine oxidase-coupled assay). The test is classed as biochemical. The conditions noted are these: ratio of dissociation constants of the inhibitor pair.
Procedure: Inhibition of purified MTAN activity. […] Reactions were monitored for 2 hours at 25° C. on a Cary 300 Bio UV-Vis spectrophotometer. Inhibition constants were obtained by fitting the data to the following expression for competitive inhibition using KaleidaGraph 3.6 (Synergy Software, Reading, Pa.):
where νs′ and νs are steady state rates in the presence, and absence of inhibitor, respectively; Km is the Michaelis constant for substrate MTA which was obtained as described above; [S] and [I] are the concentrations of MTA and inhibitor, respectively. If the concentration of inhibitor is smaller than 10-fold concentration of enzymes, the following correction was then applied:

The target of test [5] is EcMTAN (Escherichia coli, UniProt P0AF12). The settings on record: purified EcMTAN; cited from earlier work.
EcMTAN, sequence (P0AF12 whole entry): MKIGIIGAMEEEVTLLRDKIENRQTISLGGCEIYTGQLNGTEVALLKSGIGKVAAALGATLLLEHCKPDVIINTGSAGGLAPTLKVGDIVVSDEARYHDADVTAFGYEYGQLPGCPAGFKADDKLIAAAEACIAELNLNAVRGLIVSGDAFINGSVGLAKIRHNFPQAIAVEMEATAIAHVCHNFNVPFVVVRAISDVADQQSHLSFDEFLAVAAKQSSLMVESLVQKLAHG

human MTAP, sequence (Q13126 whole entry): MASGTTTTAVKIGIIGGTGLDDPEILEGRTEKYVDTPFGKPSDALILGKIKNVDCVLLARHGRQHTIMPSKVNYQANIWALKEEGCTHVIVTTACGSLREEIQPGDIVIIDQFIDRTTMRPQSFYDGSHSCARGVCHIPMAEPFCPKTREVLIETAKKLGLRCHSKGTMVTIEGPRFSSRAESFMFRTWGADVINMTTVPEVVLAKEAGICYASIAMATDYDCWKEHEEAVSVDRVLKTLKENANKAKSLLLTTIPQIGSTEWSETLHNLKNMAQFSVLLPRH

Usually IC50 stands for the concentration at which inhibition is half-maximal. In the case of `CCCCSCC1CN(Cc2c[nH]c3c(N)ncnc23)CC1O` (stereo not shown) [BuT-DADMe-ImmA, 5′-butylthio-(BuT-)DADMe-ImmucillinA], the IC50 in test [1] was 1.4 nM.

Consider `CCSCC1CN(Cc2c[nH]c3c(N)ncnc23)CC1O` (stereo not shown) [EtT-DADMe-ImmA, 5′-ethylthio-(EtT-) DADMe-ImmucillinA], for which the half-maximal inhibitory concentration (IC50) in test [1] stood at 11 nM.

With `CSCC1CN(Cc2c[nH]c3c(N)ncnc23)CC1O` (stereo not shown) [MT-DADMe-ImmA, 5′-methylthio-(MT-) DADMe-ImmucillinA], the IC50 in test [1] turned out to be 0.94 nM. Besides, the “increase of cellular IC50 above Ki* (diffusion barrier)” value in test [2] is recorded as roughly 500 fold. The Kd in test [3] was 0.086 nM.

Turning to `CSC[C@H]1N[C@@H](c2c[nH]c3c(N)ncnc23)[C@H](O)[C@@H]1O` [MT-ImmA, 5′-methylthio-ImmucillinA], the KImmA/KDADMe-ImmA in test [4] worked out at 135.

Turning to `Nc1ncnc2c(CN3CC(O)C(CSc4ccc(Cl)cc4)C3)c[nH]c12` (stereo not shown) [para-chloro-phenylthio-DADMe-ImmA], in test [5], the Km/Ki is ~10^8.
